Assay in all cases: NCI tumour cell line growth inhibition, 48 h
The subject of test [1] is 786-0.
Test [2] concerns A549.
Test [3] deals with ACHN.
Test [4] relates to DU-145.
The subject of test [5] is HCC 2998.
The subject of test [6] is HOP-92.
In test [7] the test system is KM12.
Test [8] relates to LOX IMVI.
The subject of test [9] is MDA-MB-231.
The test system of test [10] is MOLT-4.
Test [11] deals with Malme-3M.
The subject of test [12] is NCI-H23.
For test [13], the system named is OVCAR-8.
The subject of test [14] is SF-295.
Test [15] deals with SF-539.
Test [16] deals with SK-MEL-28.
The test system of test [17] is SK-MEL-5.
Test [18] has as its system SNB-19.
In test [19] the test system is UO-31.
In test [20] the test system is SR.

Each structure is given as a SMILES string.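 Protocol summary: plate cells (96-well), add compound at 5 concentrations, incubate 48 h, interpolate endpoints linearly. GI50 = concentration required for 50% inhibition of growth.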 Active and inactive are the calls of the source. No stated cut-off is given here; in the data, active = GI50 up to about 1.1 µM and inactive = higher.

`COc1cc2c(OC)c3cc(C)oc(=O)c3c(O)c2c(O)c1-c1c(OC)cc2c(OC)c3cc(C)oc(=O)c3c(O)c2c1O`: the GI50 in test [1] is 22.2 µM (inactive); in test [2], 19.4 µM (inactive); in test [3], 16.5 µM (inactive); in test [4] it was 33.9 µM (inactive); in test [5], 18.9 µM (inactive); in test [6], 16.1 µM (inactive). Further, the GI50 in test [7] was 19.1 µM (inactive); in test [8], 19.6 µM (inactive); in [9], 18.4 µM (inactive); in test [10], 15.7 µM (inactive); in [11] it was 17.7 µM (inactive); in [12] it was 16.6 µM (inactive). For the same compound, the GI50 in test [13] is 13 µM (inactive); in [14] it was 18.6 µM (inactive); in test [15], 17.6 µM (inactive); in test [16], 21.2 µM (inactive); in test [17], 16.7 µM (inactive); in test [18] it was 25.2 µM (inactive). Also, in test [19], the GI50 was 18.5 µM (inactive).
Regarding `COc1ccc(C2CC(c3ccccc3)=Nc3c(-c4ccccc4)nnn32)cc1` (centres undefined), the GI50 in test [1] is > 100 µM (inactive); in test [2], 39.2 µM (inactive); in [3] it was 17 µM (inactive); in test [4], > 100 µM (inactive); in test [7], 46.9 µM (inactive); in test [8], > 100 µM (inactive). The GI50 in [9] is 85.1 µM (inactive); in test [10] it was > 100 µM (inactive); in test [12], > 100 µM (inactive); in test [13], 37.3 µM (inactive); in test [14], > 100 µM (inactive); in test [15] it was 85.3 µM (inactive). The GI50 is 9.27 µM (inactive) in test [17], > 100 µM (inactive) in test [18], 23.3 µM (inactive) in [20] and > 100 µM (inactive) in test [19].
Regarding `N#Cc1nsnc1-c1nc(-c2nsnc2C#N)nc(-c2nsnc2C#N)n1`, the GI50 in test [1] is 61.9 µM (inactive); in test [3], > 100 µM (inactive); in test [4] it was > 100 µM (inactive); in [5], > 100 µM (inactive); in test [7], 96.2 µM (inactive); in [8], > 100 µM (inactive). Also, the GI50 in test [9], in test [10], in test [11], in test [12], in [13] and in [14] was > 100 µM (inactive) each time. Also, the GI50 in test [15], in test [16], in test [17], in test [18], in [20] and in test [19] was > 100 µM (inactive) throughout.
On to `CCOC(=O)C(=O)N/N=C1\C(=O)Nc2ccccc21`, for which the GI50 in [1], in [2], in test [3], in [4], in [5] and in test [7] was > 100 µM (inactive) each time. Further, the GI50 in test [8], in test [9], in [10], in test [11], in test [12] and in test [13] was > 100 µM (inactive) throughout. Besides, the GI50 in test [14], in [16], in test [17], in test [18], in [20] and in test [19] was > 100 µM (inactive) throughout.
Consider `C[C@]12CCC(N3CCCC3)CC1=CC[C@@H]1[C@@H]2CC[C@]2(C)C(O)[C@H](n3ccnc3)C[C@@H]12` (some centres undefined), for which the GI50 in test [1] was 41.6 µM (inactive); in test [2], 66.5 µM (inactive); in test [3] it was 36.7 µM (inactive); in test [4], > 100 µM (inactive); in test [6], > 100 µM (inactive); in [7] it was > 10 µM (inactive). The GI50 in [8] is 34.4 µM (inactive); in [9], > 100 µM (inactive); in test [10] it was 14.2 µM (inactive); in test [12], 53.6 µM (inactive); in test [13], 61.2 µM (inactive); in [14], 35.2 µM (inactive). The GI50 in test [15] was 19 µM (inactive); in [16], 26.1 µM (inactive); in test [17] it was 53 µM (inactive); in test [18], > 100 µM (inactive); in test [20] it was 15.3 µM (inactive); in test [19], 44.6 µM (inactive).
Turning to `c1ccc2c(c1)SC1=Nc3sc4ccccc4[n+]3CN12`, the GI50 in test [1] was 25.9 µM (inactive); in [2], 1.04 µM (active); in [3], 32.8 µM (inactive); in test [4] it was 27.8 µM (inactive); in test [6] it was 7.53 µM (inactive); in [7], 2.34 µM (inactive). Also, the GI50 in test [9] is 18.3 µM (inactive); in test [10], 11.7 µM (inactive); in [11], 10.5 µM (inactive); in test [12], 6.01 µM (inactive); in [13], 26.4 µM (inactive); in test [14], 29.4 µM (inactive). Besides, the GI50 was 20.5 µM (inactive) in [15]; 2.52 µM (inactive) in test [17]; 19.9 µM (inactive) in test [18]; 16.9 µM (inactive) in test [20]; 18.5 µM (inactive) in test [19].
In the case of `CCOP(=O)(OCC)[C@H](O)c1ccsc1`, the GI50 in test [1], in test [2], in [3], in test [4], in test [5] and in [7] was > 100 µM (inactive) each time. The GI50 in test [8], in test [9], in test [10], in test [11], in test [12] and in test [13] was > 100 µM (inactive) throughout. The GI50 in [14], in test [15], in test [16], in test [17], in test [18] and in test [20] was > 100 µM (inactive) in each case. Moreover, the GI50 in test [19] is > 100 µM (inactive).
Regarding `c1cc2cc(c1)CN1CCNCCN(CCNCC1)Cc1cccc(c1)CN1CCNCCN(CCNCC1)C2`, the GI50 in test [1], in [2], in [3], in test [4], in test [5] and in test [7] was > 100 µM (inactive) each time. Moreover, the GI50 in [8], in [9], in [10], in [11], in test [12] and in [13] was > 100 µM (inactive) each time. For the same compound, the GI50 was > 100 µM (inactive) in [14]; > 100 µM (inactive) in test [15]; > 100 µM (inactive) in test [16]; > 100 µM (inactive) in [17]; > 100 µM (inactive) in test [18]; 78 µM (inactive) in test [20]. Further, the GI50 in test [19] was > 100 µM (inactive).
On to `Cc1n[nH]c(=O)n1/N=C/c1ccncc1`, for which the GI50 in [1], in test [2], in [3], in test [4], in test [5] and in test [6] was > 100 µM (inactive) in each case. In addition, the GI50 in [7], in test [8], in test [9], in test [10], in [11] and in [12] was > 100 µM (inactive) throughout. Besides, the GI50 in [13], in test [14], in test [15], in [16], in [17] and in test [18] was > 100 µM (inactive) each time. The GI50 in test [19] is > 100 µM (inactive).
Consider `COc1cc([N+](=O)[O-])c(S(=O)(=O)O)cc1NS(=O)(=O)c1ccc(C)cc1`, for which the GI50 in test [1], in test [2], in test [3], in test [4], in test [7] and in [8] was > 100 µM (inactive) throughout. Moreover, the GI50 in test [9], in test [10], in test [12], in test [13], in test [14] and in test [15] was > 100 µM (inactive) in each case. In addition, the GI50 in test [16], in test [17], in [18], in [20] and in [19] was > 100 µM (inactive) each time.
`O=C(NNCc1ccccc1O)c1ccccc1O`: the GI50 was 11 µM (inactive) in test [1]; 8.13 µM (inactive) in test [2]; 5.12 µM (inactive) in test [3]; 3.22 µM (inactive) in [4]; 4.01 µM (inactive) in [5]; 33 µM (inactive) in test [6]. Moreover, the GI50 in [7] was 8.91 µM (inactive); in test [8] it was 3.09 µM (inactive); in test [9] it was > 100 µM (inactive); in [10], 1.75 µM (inactive); in test [11] it was 15.1 µM (inactive); in test [12] it was 9.84 µM (inactive). The GI50 in [13] is 14.4 µM (inactive); in test [14], 2.51 µM (inactive); in [15], 16.5 µM (inactive); in [16], 8.41 µM (inactive); in test [17], 3.06 µM (inactive); in test [18], 36.6 µM (inactive). In [19], the GI50 was 1.92 µM (inactive).

Source of the values: ChEMBL document CHEMBL1201862, “PubChem BioAssay data set” (2004).
